From patent US20250127835A1, “COMPOSITION BASED ON PLANT EXTRACTS AND USE THEREOF FOR THE PREVENTION AND/OR TREATMENT OF CARBOHYDRATE AND LIPID DYSMETABOLISM” (ESSERRE PHARMA SRL, priority 2021, published 2025)
Structures can show the parent of a compound that is named as a salt.

Tests used:
[1] = tested on: adult individuals with moderate hypercholesterolaemia; test: 6-arm, double-blind, placebo-controlled pilot clinical study, 12 weeks; format: in vivo, humans
Description: All the enrolled subjects were subjected, 14 days prior to enrolment (T-14), to a pre-enrolment visit with blood tests to assess meeting the inclusion criteria. The individuals who at TO met the inclusion criteria underwent a randomization visit at which the respective treatment was assigned and blood tests were performed in relation to the reference parameters. The study lasted 12 weeks. At the end of treatment (T12), the subjects were subjected to an end-of-study visit and blood tests. The parameters investigated in the study are: Body mass index, systolic and diastolic blood pressure, blood glucose, total cholesterol, LDL, HDL, triglycerides, GOT, GPT, gGT, creatinine phosphokinase (CPK). […] The treatment called “placebo” consists of a tablet equal in shape, weight, colour size and flavour to the active tablet but containing “inert” material for the desired effect and consists of: microcrystalline cellulose, magnesium stearate, silicon dioxide, calcium phosphate, chlorophylline dye, yellow iron oxide dye, yellow coating agents. The treatments related to groups C, D, E and F consist of one tablet equal in appearance to the tablets of groups A and B but consisting of the single active ingredient, as described above in addition to excipients. The treatment tablets were packaged in anonymous white bottles, showing only the batch number consisting of an alphanumeric code and the expiration date. Neither the investigator nor the study subjects knew the contents of the bottles. The bottles of each treatment were placed in cardboard boxes containing a letter in a sealed envelope with reference to the batch number and content, to be opened only in case of need, as in cases of serious adverse events. After randomization, each study participant was given the vial with 30 tablets for the specific treatment of the group to which they belonged. All the subjects were instructed to take one tablet in the evening before bed for 12 weeks.

[2] = tested on: streptozocin-induced diabetic rats; conditions: 6 mg/kg for 5 weeks; cited from earlier work
[3] = tested on: 86 subjects of which 60 with type II diabetes mellitus; conditions: 100 mg per day, after 3 months of supplementation; cited from earlier work
hyperglycaemic subjects = conditions: 300 mg daily dose; cited from earlier work
[4] = after 12 weeks, printed as reduction of x% or as −x%

For `Cc1ncc(C[n+]2csc(CCO)c2C)c(N)n1` [THIAMINE, thiamine hydrochloride], the “reductions in the parameters of interest” value ([1]; after 12 weeks) was “did not show statistically significant reductions”, the “increase of HDL cholesterol (HDL-C)” value ([1]; after 12 weeks of treatment) was “no changes” and the “reduction of LDL cholesterol (LDL-C)” value ([1]; after 12 weeks of treatment) was “did not achieve a percentage reduction”. The “reduction of fasting plasma glucose (FPG)” value [1, 4] was “not detected”, the “reduction of triglycerides (TG)” value [1, 4] was −1% and the HDL-c [2] was “increases”. For the same compound, the insulin [2] was “increases”, the malonyldialdehyde [2] was “reduces” and the serum glucose [2] was “reduces”. The total cholesterol [2] was “reduces”, the triglycerides [2] was “reduces” and the total cholesterol [3] was “significantly reduces”. For the same compound, the diastolic pressure (hyperglycaemic subjects) was “reduces” and the systolic pressure (hyperglycaemic subjects) was “reduces”.
